Like-named read-outs stand apart in the source and are kept apart here.

Assay [1] concerns CsgD. The following applies: S. Typhimurium, first 24 h of biofilm formation; cited from earlier work.
Assay [2] relates to S. aureus ATCC 6538. The assay is described as follows: Monospecies bacterial biofilm inhibition, static peg assay (Calgary device, crystal violet; planktonic OD600). In kind it is cell-based, Staphylococcus aureus. The procedure:
(§1) A static peg assay, described previously ([27], [74]), was used for bacterial biofilm formation. The Calgary biofilm device consists of a platform carrying 96 polystyrene pegs (Nunc no. 445497) that fits as a microtiter plate lid, with 1 peg hanging into each microtiter plate well (Nunc no. 269789). Twofold serial dilutions of the compounds (dissolved in 100% dimethyl sulfoxide [DMSO] or ethanol) in 100 μl liquid broth (TSB diluted 1/20) per well were prepared in the microtiter plate in duplicate or triplicate with a maximum concentration of 1,600 μM and a minimum concentration of 0.8 μM. Subsequently, an overnight culture of S. Typhimurium ATCC 14028, P. aeruginosa PA14, E. coli TG1, S. epidermidis, S. aureus SH1000, or S. aureus ATCC 6538 (all grown in LB) was diluted 1:100 into TSB diluted 1/20 (or TSB for S. epidermidis, S. aureus SH1000, and S. aureus ATCC 6538), whereas overnight cultures of S. liquefaciens MG44 and B. cepacia LMG1222T were diluted 1:50 into TSB diluted 1/20. P. gingivalis ATCC 33277 cultures were diluted in TSB diluted 1/20 to have a final concentration of 1 × 10^8 cells/ml. Next, 100 μl was added to each well of the microtiter plate, resulting in a total volume of 200 μl medium per well (final concentration range of compounds, 800 μM [2% DMSO or ethanol] to 0.4 μM [0.001% DMSO or ethanol]). In the next step, the pegged lid was placed on the microtiter plate and the plate was incubated for 24 h or 48 h at 25°C or 37°C without shaking. At 37°C, the plates were placed in a sealed container with wet towels on the bottom to prevent evaporation of the growth medium. Biofilms of P. gingivalis ATCC 33277 were grown anaerobically at 37°C for 72 h. During this incubation period, biofilms were formed on the surface of the pegs. After incubation, the optical density at 600 nm (OD600) for the planktonic cells in the microtiter plate was measured using a Synergy MX multimode reader (BioTek, Winooski, VT). This gives a first indication of the effect of the compounds on planktonic growth. For quantification of biofilm formation, the pegs were washed once in 200 μl PBS. The remaining attached bacteria were stained for 30 min with 200 μl 0.1% (wt/vol) crystal violet in an isopropanol-methanol-PBS solution (1:1:18, vol/vol). Excess stain was rinsed off by placing the pegs in a 96-well plate filled with 200 μl distilled water per well. After air drying of the pegs (30 min), the dye bound to the adherent biofilm was extracted with 30% glacial acetic acid (200 μl per well of a 96-well plate). The optical density at 570 nm (OD570) of each well was measured using a Synergy MX multimode reader (BioTek, Winooski, VT). The concentration of each compound needed to inhibit biofilm formation by 50% (BIC50) and the concentration of each compound needed to inhibit planktonic growth by 50% (IC50) were determined from the concentration gradient by using nonlinear curve fitting (GraphPad Prism software, version 5; GraphPad Software, Inc., La Jolla, CA). In the same assay, the effect on planktonic growth was evaluated. The activity was considered biofilm specific if the BIC50 was at least two times lower than the IC50. Data represent the means from at least 3 technical repeats with the corresponding 95% confidence intervals (provided in the supplemental material).

For assay [3], the system named is S. aureus SH1000. The assay is described as follows: Monospecies bacterial biofilm inhibition, static peg assay. In kind it is cell-based, Staphylococcus aureus. The procedure:
as §1

Assay [4] concerns S. epidermidis. Described as above. Type of assay: cell-based, Staphylococcus epidermidis. The settings on record: 37°C. On the procedure: as §1
Assay [5] deals with E. coli TG1. Described as above. Type of assay: cell-based, Escherichia coli. The procedure: as §1
The test system of assay [6] is P. aeruginosa PA14. The assay is described as above. In kind it is cell-based, Pseudomonas aeruginosa. On the procedure: as §1
For assay [7], the system named is S. Typhimurium ATCC 14028. The description is as above. Type of assay: cell-based, Salmonella enterica serovar Typhimurium. The settings on record: S. Typhimurium ATCC 14028, 25°C. The procedure:
as §1

Assay [8] has as its system S. liquefaciens MG44. Described as above. In kind it is cell-based, Serratia liquefaciens. The following applies: S. liquefaciens MG44, 25°C. The procedure:
as §1

Assay [9] concerns B. cepacia LMG1222T. Described as above. Type of assay: cell-based, Burkholderia cepacia. The settings on record: 25°C. The procedure: as §1
Assay [10] relates to C. albicans SC5314. The assay is described as follows: Inhibition of C. albicans biofilms, CellTiter-Blue quantification. Type of assay: cell-based, Candida albicans. The settings on record: C. albicans SC5314, 37°C, CTB method, read-out: BIC50 (μM) for C. albicans SC5314 (37°C). The procedure: The potential of the compounds to prevent C. albicans SC5314 biofilm formation was assessed using the CellTiter-Blue (CTB) quantification method ([75]). […]. Twofold serial dilutions of the compounds (dissolved in 100% DMSO or ethanol) in 100 μl RPMI 1640 medium per well were prepared in a round-bottom polystyrene 96-well microtiter plate (TPP; Trasadingen, Switzerland) in duplicate or triplicate with a maximum concentration of 1,600 μM and a minimum concentration of 0.8 μM. One hundred microliters of the cell suspension was added to each well of the microtiter plate, resulting in a total volume of 200 μl medium per well (final concentration range of compounds, 800 μM [2% DMSO or ethanol] to 0.4 μM [0.001% DMSO or ethanol]). After 16 h of static incubation at 37°C, the biofilms were washed and quantified by the CTB method as described previously ([73]).
On the technique in general: Resazurin is reduced to fluorescent resorufin, in cell work by metabolically active cells.

Assay [11] deals with P. aeruginosa PAO1. The following applies: cited from earlier work.
Assay [12] has as its system S. aureus SH1000. The arrangement: method as in PMID 23208606, PMID 19959627. The settings on record: cited from earlier work.
Assay [13] has as its system E. coli VR50. The arrangement: method as in PMID 23208606, PMID 19959627. The settings on record: cited from earlier work.
The test system of assay [14] is E. coli F18. Further details: method as in PMID 23208606, PMID 19959627. The following applies: cited from earlier work.
[15] abbreviates: Staphylococcus aureus, ATCC6538, read-out: BIC50 (concentration needed to inhibit biofilm formation by 50%), S. aureus ATCC 6538, 37°C.
[16] abbreviates: Staphylococcus aureus, ATCC6538, read-out: IC50 (concentration needed to inhibit planktonic growth by 50%), S. aureus ATCC 6538, 37°C, planktonic OD600.
Setting [17] is: Staphylococcus aureus, SH1000, S. aureus SH1000, 37°C, read-out: BIC50.
The mark [18] stands for this setting: Staphylococcus aureus, SH1000, S. aureus SH1000, 37°C, read-out: IC50 (planktonic growth).
The mark [19] stands for this setting: Staphylococcus epidermidis, read-out: BIC50.
Setting [20] is: Staphylococcus epidermidis, read-out: IC50 (planktonic growth).
[21] abbreviates: Escherichia coli, TG1, E. coli TG1, 25°C, read-out: BIC50.
Setting [22] is: Escherichia coli, TG1, E. coli TG1, 25°C, read-out: IC50 (planktonic growth).
Where [23] appears, read: Pseudomonas aeruginosa, PA14, P. aeruginosa PA14, 25°C, read-out: BIC50.
Where [24] appears, read: Pseudomonas aeruginosa, PA14, P. aeruginosa PA14, 25°C, read-out: IC50 (planktonic growth).
[25] abbreviates: Salmonella enterica, read-out: BIC50.
[26] abbreviates: Salmonella enterica, read-out: IC50 (planktonic growth).
[27] abbreviates: Serratia liquefaciens, read-out: BIC50.
Setting [28] is: Serratia liquefaciens, read-out: IC50 (planktonic growth).
[29] abbreviates: Burkholderia cepacia, read-out: BIC50.
Setting [30] is: Burkholderia cepacia, read-out: IC50 (planktonic growth).
Where [31] appears, read: read-out: IC50 (planktonic growth).

`Nc1ncc(-c2ccccc2)[nH]1` [5-phenyl-2-aminoimidazole]: the “effect on transcription of CsgD and regulon genes csgB and adrA” value in assay [1] was “reduces the transcription of CsgD”.

For `O=c1cc(-c2ccccc2)oc2cc(O)c(O)c(O)c12` [Baicalein, reference compound], the IC50 in assay [2] (setting [15]) was greater than 400 µM; in assay [2] (setting [16]), greater than 400 µM; in assay [3] (setting [17]), 77.5 µM; in [3] (setting [18]), greater than 400 µM; in assay [4] (setting [19]), greater than 400 µM; in [4] (setting [20]), greater than 400 µM. Also, the IC50 was 1.2 µM in assay [5] (setting [21]); roughly 23.5 µM in assay [5] (setting [22]); greater than 400 µM in [6] (setting [23]); greater than 400 µM in [6] (setting [24]); greater than 400 µM in assay [7] (setting [25]); greater than 400 µM in [7] (setting [26]). For the same compound, the IC50 in assay [8] (setting [27]) is greater than 400 µM; in assay [8] (setting [28]), greater than 400 µM; in [9] (setting [29]) it was 48.9 µM; in assay [9] (setting [30]) it was greater than 400 µM; in assay [10] (Candida albicans), 273 µM. The “concentration at which biofilm formation is inhibited” value in assay [11] was 20 µM.

For `O=C(N/N=C/c1ccc([N+](=O)[O-])o1)c1ccc(O)cc1` [Nifuroxazide, reference compound], the IC50 was 65.5 µM in [2] (setting [15]); 125 µM in [2] (setting [16]); greater than 400 µM in assay [3] (setting [17]); greater than 400 µM in [3] (setting [18]); 46.9 µM in [4] (setting [19]); roughly 43.4 µM in assay [4] (setting [20]). The IC50 was 12.2 µM in assay [5] (setting [21]); greater than 400 µM in assay [5] (setting [22]); greater than 400 µM in assay [6] (setting [23]); greater than 400 µM in assay [6] (setting [24]); greater than 400 µM in [7] (setting [25]); greater than 400 µM in assay [7] (setting [26]). Also, the IC50 in assay [8] (setting [27]), in [8] (setting [28]), in [9] (setting [29]), in [9] (setting [30]) and in assay [10] (Candida albicans) was greater than 400 µM in each case. Also, the “concentration at which biofilm formation is inhibited” value in assay [11] is 70 µM.

In the case of Tannic acid [reference compound], the IC50 in assay [2] (S. aureus ATCC 6538, 37°C, planktonic OD600, read-out: IC50 (concentration needed to inhibit planktonic growth by 50%)) is greater than 400 µM; in [2] (S. aureus ATCC 6538, 37°C, read-out: BIC50 (concentration needed to inhibit biofilm formation by 50%)), roughly 300 µM; in assay [3] (S. aureus SH1000, 37°C, read-out: BIC50) it was 115 µM; in assay [3] (S. aureus SH1000, 37°C, read-out: IC50 (planktonic growth)), greater than 400 µM; in assay [4] (read-out: BIC50), greater than 400 µM; in assay [4] (setting [31]) it was greater than 400 µM. The IC50 was roughly 195 µM in [5] (E. coli TG1, 25°C, read-out: BIC50); greater than 400 µM in [5] (E. coli TG1, 25°C, read-out: IC50 (planktonic growth)); 27.7 µM in [6] (P. aeruginosa PA14, 25°C, read-out: BIC50); greater than 400 µM in [6] (P. aeruginosa PA14, 25°C, read-out: IC50 (planktonic growth)); 18.8 µM in assay [7] (read-out: BIC50); greater than 400 µM in assay [7] (setting [31]). The IC50 in assay [8] (read-out: BIC50) was greater than 400 µM; in assay [8] (setting [31]) it was greater than 400 µM; in [9] (read-out: BIC50), 1.9 µM; in [9] (setting [31]), greater than 400 µM; in assay [10], greater than 400 µM. For the same compound, the “concentration at which biofilm formation is inhibited” value in assay [12], in [13] and in assay [14] was 20 µM in each case.
